Measured values from ChEMBL document CHEMBL1201862, “PubChem BioAssay data set” (2004).
Calls of active or inactive are those of the source.

How the values were obtained:
[1] = molecular target: Cytochrome P450 2C9 (Homo sapiens, UniProt P11712)
[2] = molecular target: T1, Cytochrome P450 1A2 (Homo sapiens, UniProt P05177);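 also: PubChem cytochrome P450 panel assay, CYP1A2 panel member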
T1 sequence (P05177 whole entry): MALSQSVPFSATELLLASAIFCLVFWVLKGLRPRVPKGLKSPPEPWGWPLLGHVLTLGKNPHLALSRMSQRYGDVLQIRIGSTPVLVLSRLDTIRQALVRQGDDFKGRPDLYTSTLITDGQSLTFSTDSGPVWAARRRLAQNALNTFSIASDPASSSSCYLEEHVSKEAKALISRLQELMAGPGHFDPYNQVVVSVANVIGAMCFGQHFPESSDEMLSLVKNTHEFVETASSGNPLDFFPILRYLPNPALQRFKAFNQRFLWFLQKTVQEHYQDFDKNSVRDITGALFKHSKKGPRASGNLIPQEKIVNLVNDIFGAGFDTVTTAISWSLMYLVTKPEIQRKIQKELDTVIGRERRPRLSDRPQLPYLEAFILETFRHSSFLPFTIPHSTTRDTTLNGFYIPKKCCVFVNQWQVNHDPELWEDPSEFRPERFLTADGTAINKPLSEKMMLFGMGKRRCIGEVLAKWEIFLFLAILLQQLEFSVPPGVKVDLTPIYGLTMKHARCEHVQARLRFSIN

[3] = molecular target: Cytochrome P450 3A4 (Homo sapiens, UniProt P08684);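 also: CYP3A4 tested as one member of a cytochrome P450 panel screen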
[4] = molecular target: Cytochrome P450 2C19 (Homo sapiens, UniProt P33261); experiment: Cytochrome panel assay with activity outcomes. Panel member name: p450-cyp2c19 Compounds with AC50 equal or less than 10 uM are considered active; type: functional; conditions: read-out: AC50
[5] = decrease of insulin promoter-GFP reporter – imaging, high-content screening, mouse beta cells (AID 1628); type: functional; conditions: MIN6
[6] = MIN6 cell viability loss – mouse insulinoma, cytotoxicity control, dose response (AID 2122); type: functional;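 also: confirmatory high-throughput counterscreen run to flag cytotoxic compounds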
[7] = Trypanosoma cruzi growth suppression in host cells – NIH3T3 host cells, beta-gal luminescence, confirmation (AID 2044); type: functional, cell-based;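 also: intracellular parasites grown in NIH/3T3 mouse fibroblasts as host cells; luminescent beta-galactosidase reporter signal from transgenic T. cruzi replicating inside host cells; inhibitors lower the luminescence signal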
[8] = NIH3T3 cell viability loss – ATP luminescence, mouse fibroblasts, counter-screen, dose response (AID 2010); type: functional, cell-based;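 also: cells exposed to compound for about 90 hours before reading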

Cytochrome P450 2C9, sequence (P11712 whole entry): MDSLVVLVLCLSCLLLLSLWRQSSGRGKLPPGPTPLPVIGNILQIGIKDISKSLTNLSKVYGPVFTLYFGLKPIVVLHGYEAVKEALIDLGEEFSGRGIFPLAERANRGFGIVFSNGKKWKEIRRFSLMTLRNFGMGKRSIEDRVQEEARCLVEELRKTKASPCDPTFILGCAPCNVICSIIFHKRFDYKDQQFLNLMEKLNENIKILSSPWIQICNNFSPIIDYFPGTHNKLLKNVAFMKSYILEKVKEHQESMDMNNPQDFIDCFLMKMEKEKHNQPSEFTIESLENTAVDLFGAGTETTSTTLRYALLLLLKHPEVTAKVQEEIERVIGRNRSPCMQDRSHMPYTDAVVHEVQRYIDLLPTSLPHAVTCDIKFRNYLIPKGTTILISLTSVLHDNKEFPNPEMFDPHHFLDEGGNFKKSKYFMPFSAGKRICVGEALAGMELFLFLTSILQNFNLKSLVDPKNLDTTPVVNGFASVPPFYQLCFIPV
Cytochrome P450 3A4, sequence (P08684 whole entry): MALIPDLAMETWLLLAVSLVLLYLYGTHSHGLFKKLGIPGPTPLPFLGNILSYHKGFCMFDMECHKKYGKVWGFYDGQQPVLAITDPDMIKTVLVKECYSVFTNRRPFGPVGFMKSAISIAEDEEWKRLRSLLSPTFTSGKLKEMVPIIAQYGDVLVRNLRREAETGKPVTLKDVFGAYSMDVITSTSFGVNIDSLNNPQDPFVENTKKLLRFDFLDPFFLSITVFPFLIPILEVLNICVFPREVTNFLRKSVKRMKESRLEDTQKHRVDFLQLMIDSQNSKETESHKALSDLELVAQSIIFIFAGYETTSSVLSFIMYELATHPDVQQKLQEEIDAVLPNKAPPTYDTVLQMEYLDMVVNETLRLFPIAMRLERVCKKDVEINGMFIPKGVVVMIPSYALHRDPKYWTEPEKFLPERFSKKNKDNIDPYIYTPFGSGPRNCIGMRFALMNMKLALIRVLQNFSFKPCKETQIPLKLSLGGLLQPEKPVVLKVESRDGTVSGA
Cytochrome P450 2C19, sequence (P33261 whole entry): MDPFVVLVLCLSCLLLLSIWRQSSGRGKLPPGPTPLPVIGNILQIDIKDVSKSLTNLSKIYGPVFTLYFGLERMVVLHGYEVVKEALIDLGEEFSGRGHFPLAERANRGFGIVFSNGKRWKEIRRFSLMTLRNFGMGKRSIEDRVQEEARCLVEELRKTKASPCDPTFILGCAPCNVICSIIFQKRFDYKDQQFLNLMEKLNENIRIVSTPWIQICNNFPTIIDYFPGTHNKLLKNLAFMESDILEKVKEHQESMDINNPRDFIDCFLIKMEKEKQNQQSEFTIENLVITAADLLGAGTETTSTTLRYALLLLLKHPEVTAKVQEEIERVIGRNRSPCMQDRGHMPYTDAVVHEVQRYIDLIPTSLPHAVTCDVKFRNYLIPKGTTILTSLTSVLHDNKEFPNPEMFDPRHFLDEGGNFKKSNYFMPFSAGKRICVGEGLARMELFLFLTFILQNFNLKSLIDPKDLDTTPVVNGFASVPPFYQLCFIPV

| Structure (SMILES) | AC50 [1] | AC50 [2] | AC50 [3] | AC50 [4] | IC50 [5] | IC50 [6] | also measured |
| --- | --- | --- | --- | --- | --- | --- | --- |
| O=C(c1cc(-c2ccco2)on1)N1CCOCC1 | inconclusive | 0.0251 µM (inconclusive) |  |  |  |  |  |
| Cc1cc(C)n(-c2nc(NCCC(C)C)c3c4c(sc3n2)COC(C)(C)C4)n1 |  |  |  |  | 3.09 µM (active) | 2.26 µM (active) | EC50 [7]: 1.64 µM (active); EC50 [8]: > 60 µM (not active) |
| Cc1ccccc1Cn1c(=N)n(CC(=O)c2ccco2)c2ccccc21 |  |  |  |  | 3.99 µM (active) | 7.02 µM (active) |  |

The next lines start with results.

| AC50 [1] | AC50 [2] | AC50 [3] | AC50 [4] | Structure (SMILES) | IC50 [5] | IC50 [6] | also measured |
| --- | --- | --- | --- | --- | --- | --- | --- |
| inconclusive | 1.58 µM (inconclusive) | 15.8 µM (inconclusive) | 3.16 µM (inconclusive) | Cc1cc(C)cc(-n2nnc(C(=O)NCc3ccccc3Cl)c2N)c1 |  |  |  |
| inconclusive |  |  |  | O=C(Nc1cccc2ccccc12)c1cn(-c2ccccc2)nc1-c1cccs1 |  |  |  |
| inconclusive |  | 20 µM (inconclusive) | 20 µM (inconclusive) | CCn1c(C)nc2c1C(=O)c1ccccc1C2=O |  |  |  |
